Measurements: US7524869B2, “Taxanes having a C10 ester substituent” (Florida State University Research Foundation, Inc., priority 2000, dated 2009)

Test system: HCT116
Test: In vitro cytotoxicity measured by the cell colony formation assay
Format: cell-based
Conditions: HCT116 cells, 72 h drug incubation, colonies counted after 7 days; ID50 = drug concentration producing 50% inhibition of colony formation; read-out: IN VITRO ID 50 (nm) HCT116
Experimental: In Vitro Cytotoxicity Measured by the Cell Colony Formation Assay
Four hundred cells (HCT116) were plated in 60 mm Petri dishes containing 2.7 mL of medium (modified McCoy's 5a medium containing 10% fetal bovine serum and 100 units/mL penicillin and 100 µg/mL streptomycin). The cells were incubated in a CO2 incubator at 37° C. for 5 h for attachment to the bottom of Petri dishes. The compounds identified in Example 2 were made up fresh in medium at ten times the final concentration, and then 0.3 mL of this stock solution was added to the 2.7 mL of medium in the dish. The cells were then incubated with drugs for 72 h at 37° C. At the end of incubation the drug-containing media were decanted, the dishes were rinsed with 4 mL of Hank's Balance Salt Solution (HBSS), 5 mL of fresh medium was added, and the dishes were returned to the incubator for colony formation. The cell colonies were counted using a colony counter after incubation for 7 days.

| SMILES | IC50 [nM] |
| --- | --- |
| CC(=O)O[C@@]12CO[C@@H]1C[C@H](O)[C@@]1(C)C(=O)[C@H](OC(=O)C3CC3)C3=C(C)[C@@H](OC(=O)[C@H](O)[C@@H](NC(=O)c4ccccc4)C4CC4)C[C@@](O)([C@@H](OC(=O)c4ccccc4)C12)C3(C)C (some centres unmarked) [Compound 0923] | < 1 |
| CC(=O)O[C@@]12CO[C@@H]1C[C@H](O)[C@@]1(C)C(=O)[C@H](OC(=O)C3CC3)C3=C(C)[C@@H](OC(=O)[C@H](O)[C@@H](NC(=O)c4ccccc4)c4ccccc4)C[C@@](O)([C@@H](OC(=O)c4ccccc4)C12)C3(C)C (some centres unmarked) [Compound 0937] | < 10 |
| CCCC(=O)O[C@H]1C(=O)[C@@]2(C)C([C@H](OC(=O)c3ccccc3)[C@]3(O)C[C@H](OC(=O)[C@H](O)[C@H](C=C(C)C)NC(=O)OC(C)(C)C)C(C)=C1C3(C)C)[C@]1(OC(C)=O)CO[C@@H]1C[C@@H]2O (some centres unmarked) [Compound 0947] | < 1 |
| CCCC(=O)O[C@H]1C(=O)[C@@]2(C)C([C@H](OC(=O)c3ccccc3)[C@]3(O)C[C@H](OC(=O)[C@H](O)[C@@H](NC(=O)OC(C)(C)C)c4ccccn4)C(C)=C1C3(C)C)[C@]1(OC(C)=O)CO[C@@H]1C[C@@H]2O (some centres unmarked) [Compound 0951] | < 1 |
| CCCC(=O)O[C@H]1C(=O)[C@@]2(C)C([C@H](OC(=O)c3ccccc3)[C@]3(O)C[C@H](OC(=O)[C@H](O)[C@@H](NC(=O)OC(C)(C)C)c4cccnc4)C(C)=C1C3(C)C)[C@]1(OC(C)=O)CO[C@@H]1C[C@@H]2O (some centres unmarked) [Compound 0966] | < 10 |
| CCCC(=O)O[C@H]1C(=O)[C@@]2(C)C([C@H](OC(=O)c3ccccc3)[C@]3(O)C[C@H](OC(=O)[C@H](O)[C@@H](NC(=O)OC(C)(C)C)c4ccncc4)C(C)=C1C3(C)C)[C@]1(OC(C)=O)CO[C@@H]1C[C@@H]2O (some centres unmarked) [Compound 0978] | < 1 |
| CCCC(=O)O[C@H]1C(=O)[C@@]2(C)C([C@H](OC(=O)c3ccccc3)[C@]3(O)C[C@H](OC(=O)[C@H](O)[C@@H](NC(=O)OC(C)(C)C)c4ccco4)C(C)=C1C3(C)C)[C@]1(OC(C)=O)CO[C@@H]1C[C@@H]2O (some centres unmarked) [Compound 0983] | < 1 |
| CCCC(=O)O[C@H]1C(=O)[C@@]2(C)C([C@H](OC(=O)c3ccccc3)[C@]3(O)C[C@H](OC(=O)[C@H](O)[C@@H](NC(=O)OC(C)(C)C)c4ccoc4)C(C)=C1C3(C)C)[C@]1(OC(C)=O)CO[C@@H]1C[C@@H]2O (some centres unmarked) [Compound 0999] | < 1 |
| CCCC(=O)O[C@H]1C(=O)[C@@]2(C)C([C@H](OC(=O)c3ccccc3)[C@]3(O)C[C@H](OC(=O)[C@H](O)[C@@H](NC(=O)OC(C)(C)C)c4cccs4)C(C)=C1C3(C)C)[C@]1(OC(C)=O)CO[C@@H]1C[C@@H]2O (some centres unmarked) [Compound 1003] | < 1 |
| CCCC(=O)O[C@H]1C(=O)[C@@]2(C)C([C@H](OC(=O)c3ccccc3)[C@]3(O)C[C@H](OC(=O)[C@H](O)[C@@H](NC(=O)OC(C)(C)C)c4ccsc4)C(C)=C1C3(C)C)[C@]1(OC(C)=O)CO[C@@H]1C[C@@H]2O (some centres unmarked) [Compound 1011] | < 1 |
| CCCC(=O)OC1C(=O)C2(C)C(O)CC3OCC3(OC(C)=O)C2C(OC(=O)c2ccccc2)C2(O)CC(OC(=O)C(O)C(NC(=O)OC(C)(C)C)C3CC3)C(C)=C1C2(C)C (centres unmarked) [Compound 1020] | < 1 |
| CCCC(=O)OC1C(=O)C2(C)C(O)CC3OCC3(OC(C)=O)C2C(OC(=O)c2ccccc2)C2(O)CC(OC(=O)C(O)C(NC(=O)OC(C)(C)C)C(C)C)C(C)=C1C2(C)C (centres unmarked) [Compound 1031] | < 10 |
| CCCC(=O)OC1C(=O)C2(C)C(O)CC3OCC3(OC(C)=O)C2C(OC(=O)c2ccccc2)C2(O)CC(OC(=O)C(O)C(NC(=O)OC(C)(C)C)C3CCC3)C(C)=C1C2(C)C (centres unmarked) [Compound 1044] | < 1 |
| CCCC(=O)OC1C(=O)C2(C)C(O)CC3OCC3(OC(C)=O)C2C(OC(=O)c2ccccc2)C2(O)CC(OC(=O)C(O)C(NC(=O)OC(C)(C)C)c3ccccc3)C(C)=C1C2(C)C (centres unmarked) [Compound 1060] | < 1 |
| CC(=O)OC12COC1CC(O)C1(C)C(=O)C(OC(=O)c3cccs3)C3=C(C)C(OC(=O)C(O)C(C=C(C)C)NC(=O)OC(C)(C)C)CC(O)(C(OC(=O)c4ccccc4)C21)C3(C)C (centres unmarked) [Compound 1879] | < 10 |
| CC(=O)OC12COC1CC(O)C1(C)C(=O)C(OC(=O)c3cccs3)C3=C(C)C(OC(=O)C(O)C(NC(=O)OC(C)(C)C)c4ccccn4)CC(O)(C(OC(=O)c4ccccc4)C21)C3(C)C (centres unmarked) [Compound 1883] | < 10 |
| CC(=O)OC12COC1CC(O)C1(C)C(=O)C(OC(=O)c3cccs3)C3=C(C)C(OC(=O)C(O)C(NC(=O)OC(C)(C)C)c4ccco4)CC(O)(C(OC(=O)c4ccccc4)C21)C3(C)C (centres unmarked) [Compound 1892] | < 1 |
| CC(=O)OC12COC1CC(O)C1(C)C(=O)C(OC(=O)c3cccs3)C3=C(C)C(OC(=O)C(O)C(NC(=O)OC(C)(C)C)c4cccs4)CC(O)(C(OC(=O)c4ccccc4)C21)C3(C)C (centres unmarked) [Compound 1900] | < 1 |
| CC(=O)OC12COC1CC(O)C1(C)C(=O)C(OC(=O)c3cccs3)C3=C(C)C(OC(=O)C(O)C(NC(=O)OC(C)(C)C)c4ccc([N+](=O)[O-])cc4)CC(O)(C(OC(=O)c4ccccc4)C21)C3(C)C (centres unmarked) [Compound 1911] | < 10 |

| SMILES | IC50 [nM] |
| --- | --- |
| CC(=O)OC12COC1CC(O)C1(C)C(=O)C(OC(=O)c3cccs3)C3=C(C)C(OC(=O)C(O)C(NC(=O)OC(C)(C)C)c4ccoc4)CC(O)(C(OC(=O)c4ccccc4)C21)C3(C)C (centres unmarked) [Compound 1923] | < 1 |
| CC(=O)OC12COC1CC(O)C1(C)C(=O)C(OC(=O)c3cccs3)C3=C(C)C(OC(=O)C(O)C(NC(=O)OC(C)(C)C)c4ccsc4)CC(O)(C(OC(=O)c4ccccc4)C21)C3(C)C (centres unmarked) [Compound 1939] | < 1 |
| CC(=O)OC12COC1CC(O)C1(C)C(=O)C(OC(=O)c3cccs3)C3=C(C)C(OC(=O)C(O)C(NC(=O)OC(C)(C)C)c4cccnc4)CC(O)(C(OC(=O)c4ccccc4)C21)C3(C)C (centres unmarked) [Compound 1948] | < 10 |
| CC(=O)OC12COC1CC(O)C1(C)C(=O)C(OC(=O)c3cccs3)C3=C(C)C(OC(=O)C(O)C(NC(=O)OC(C)(C)C)c4ccncc4)CC(O)(C(OC(=O)c4ccccc4)C21)C3(C)C (centres unmarked) [Compound 1954] | < 1 |
| CC(=O)OC12COC1CC(O)C1(C)C(=O)C(OC(=O)c3cccs3)C3=C(C)C(OC(=O)C(O)C(NC(=O)OC(C)(C)C)C(C)C)CC(O)(C(OC(=O)c4ccccc4)C21)C3(C)C (centres unmarked) [Compound 1964] | < 10 |
| CC(=O)OC12COC1CC(O)C1(C)C(=O)C(OC(=O)c3cccs3)C3=C(C)C(OC(=O)C(O)C(NC(=O)OC(C)(C)C)C4CCC4)CC(O)(C(OC(=O)c4ccccc4)C21)C3(C)C (centres unmarked) [Compound 1970] | < 10 |
| CC(=O)OC12COC1CC(O)C1(C)C(=O)C(OC(=O)c3cccs3)C3=C(C)C(OC(=O)C(O)C(NC(=O)OC(C)(C)C)c4ccccc4)CC(O)(C(OC(=O)c4ccccc4)C21)C3(C)C (centres unmarked) [Compound 1988] | < 10 |
| CC(=O)OC12COC1CC(O)C1(C)C(=O)C(OC(=O)c3ccco3)C3=C(C)C(OC(=O)C(O)C(C=C(C)C)NC(=O)OC(C)(C)C)CC(O)(C(OC(=O)c4ccccc4)C21)C3(C)C (centres unmarked) [Compound 2101] | < 1 |
| CC(=O)OC12COC1CC(O)C1(C)C(=O)C(OC(=O)c3ccco3)C3=C(C)C(OC(=O)C(O)C(NC(=O)OC(C)(C)C)c4ccccn4)CC(O)(C(OC(=O)c4ccccc4)C21)C3(C)C (centres unmarked) [Compound 2111] | < 1 |
| CC(=O)OC12COC1CC(O)C1(C)C(=O)C(OC(=O)c3ccco3)C3=C(C)C(OC(=O)C(O)C(NC(=O)OC(C)(C)C)c4cccnc4)CC(O)(C(OC(=O)c4ccccc4)C21)C3(C)C (centres unmarked) [Compound 2124] | < 10 |
| CC(=O)OC12COC1CC(O)C1(C)C(=O)C(OC(=O)c3ccco3)C3=C(C)C(OC(=O)C(O)C(NC(=O)OC(C)(C)C)c4ccncc4)CC(O)(C(OC(=O)c4ccccc4)C21)C3(C)C (centres unmarked) [Compound 2132] | < 1 |
| CC(=O)OC12COC1CC(O)C1(C)C(=O)C(OC(=O)c3ccco3)C3=C(C)C(OC(=O)C(O)C(NC(=O)OC(C)(C)C)c4ccco4)CC(O)(C(OC(=O)c4ccccc4)C21)C3(C)C (centres unmarked) [Compound 2142] | < 1 |
| CC(=O)OC12COC1CC(O)C1(C)C(=O)C(OC(=O)c3ccco3)C3=C(C)C(OC(=O)C(O)C(NC(=O)OC(C)(C)C)c4ccoc4)CC(O)(C(OC(=O)c4ccccc4)C21)C3(C)C (centres unmarked) [Compound 2159] | < 1 |
| CC(=O)OC12COC1CC(O)C1(C)C(=O)C(OC(=O)c3ccco3)C3=C(C)C(OC(=O)C(O)C(NC(=O)OC(C)(C)C)c4cccs4)CC(O)(C(OC(=O)c4ccccc4)C21)C3(C)C (centres unmarked) [Compound 2164] | < 1 |
| CC(=O)OC12COC1CC(O)C1(C)C(=O)C(OC(=O)c3ccco3)C3=C(C)C(OC(=O)C(O)C(NC(=O)OC(C)(C)C)c4ccsc4)CC(O)(C(OC(=O)c4ccccc4)C21)C3(C)C (centres unmarked) [Compound 2173] | < 1 |
| CC(=O)OC12COC1CC(O)C1(C)C(=O)C(OC(=O)c3ccco3)C3=C(C)C(OC(=O)C(O)C(NC(=O)OC(C)(C)C)C(C)C)CC(O)(C(OC(=O)c4ccccc4)C21)C3(C)C (centres unmarked) [Compound 2181] | < 10 |
| CC(=O)OC12COC1CC(O)C1(C)C(=O)C(OC(=O)c3ccco3)C3=C(C)C(OC(=O)C(O)C(NC(=O)OC(C)(C)C)C4CCC4)CC(O)(C(OC(=O)c4ccccc4)C21)C3(C)C (centres unmarked) [Compound 2199] | < 10 |
| CC(=O)OC12COC1CC(O)C1(C)C(=O)C(OC(=O)c3ccco3)C3=C(C)C(OC(=O)C(O)C(NC(=O)OC(C)(C)C)c4ccc([N+](=O)[O-])cc4)CC(O)(C(OC(=O)c4ccccc4)C21)C3(C)C (centres unmarked) [Compound 2202] | < 1 |
| CC(=O)OC12COC1CC(O)C1(C)C(=O)C(OC(=O)c3ccco3)C3=C(C)C(OC(=O)C(O)C(NC(=O)OC(C)(C)C)c4ccccc4)CC(O)(C(OC(=O)c4ccccc4)C21)C3(C)C (centres unmarked) [Compound 2212] | < 10 |
